{"source": "patent US10047067B2", "about": "“Composition for treating kidney disease comprising pyrazole derivative” (Ewha University-Industry Collaboration Foundation, priority 2012, dated 2018)", "assay_type_in_all_cases": "in vivo", "key": {"C57BL/6J mice [1]": {"test_system": "C57BL/6J mice", "experiment": "Glomerular hypertrophy and glomerular mesangial expansion (PAS staining of kidney)", "conditions": "treatment group vs diabetes group, 10 mg/kg/day oral, 12 weeks", "method": "For morphological analysis for examining glomerular hypertrophy and glomerular mesangial cell formation, a staining method was used as disclosed previously (Lee E A, Seo J Y, Jiang Z, Yu M R, Kwon M K, Ha H, Lee H B: Reactive oxygen species mediate high glucose-induced plasminogen activator inhibitor-1 up-regulation in mesangial cells and in diabetic kidney. Kidney Int. 67:1762-71, 2005). As described in Example 10, diabetes was induced in mice that were then treated with 1-(pyridin-2-yl)-3-phenyl-4-propyl-1H-pyrazol-5-ol.HCl, the compound of Example 1, and scarified 12 weeks later. After cardiac perfusion with 0.1 M PBS (phosphate-buffered saline), tissue fixation was performed overnight with 2% PLP (paraformaldehyde-lysine-periodate). […] In one renal tissue, 30 glomeruli were scanned, and measured for size and mesangial cell formation, using Image-Pro Plus 4.5 Software (MEDIA CYBERNETICS). The glomerular size was calculated according to Equation 1. […] Data of FIG. 1 are expressed as mean±standard error (SE) from 8 to 12 mice per group. Statistic comparison among the groups was analyzed by ANOVA and Fisher's least significant difference test, with significance at p<0.05. *P<0.05 vs. WT, †P<0.05 vs DM."}, "C57BL/6J mice [2]": {"test_system": "C57BL/6J mice", "experiment": "Collagen accumulation (Masson's trichrome, picrosirius red) and macrophage marker F4/80 immunohistochemical staining of renal tissue", "conditions": "treatment group vs diabetes group, 10 mg/kg/day oral, 12 weeks; listed as Example 1, 10 mg/kg/day", "method": "Immunohistochemical staining was performed as previously disclosed (Noh H, Kim J S, Han K-H, Lee G T, Song J S, Chung S H, Jeon J S, Ha H, Lee H B: Oxidative stress during peritoneal dialysis: implications in functional and structural changes in the membrane. Kidney Int. 69: 2022-2028, 2006).\nBriefly, as described in Example 11, diabetes was induced in mice that were then treated with 1-(pyridin-2-yl)-3-phenyl-4-propyl-1H-pyrazol-5-ol.HCl, the compound of Example 1, and scarified 12 weeks later. After cardiac perfusion with 0.1 M PBS (phosphate-buffered saline), tissue fixation was performed overnight with 2% PLP (paraformaldehyde-lysine-periodate). Paraffin embedding was conducted by sequential treatment with: 70% ethanol for 1 hr; 80% ethanol for 1 hr; 90% ethanol for 1 hr; 95% ethanol for 1 hr, twice; 100% ethanol for 1 hr, three times; xylene for 30 min, twice; paraffin for 30 min; and paraffin for 1.5 hrs. The paraffin tissue was sliced into a section 4 μm thick, followed by deparaffinization with alcohol. In order to enhance antibody penetration thereinto, the renal tissue was immersed in 10 mM citrate buffer (pH 6.0), heated with microwaves (at 700 watts for 5 min and then at 100 watts for 5 min), and then finally incubated at room temperature for 30 min Intrinsic peroxidase was removed by treatment with peroxidase blocking reagent (Peroxidase Blocking Reagent Ready-To-Use, Dakocytomation) for 30 min. Subsequently, the renal tissue was incubated with a protein block serum-free solution (Protein Blocking Serum-Free Ready-To-Use, Dakocytomation) for 15 min and then overnight with a primary antibody (F4/80, Santa Cruz) at 4° C., followed by amplification with ABC kit (Santa Cruz) using the ABC (avidin-biotin-enzyme complex) method. […]\nTo examine tissue injury, staining was performed with Masson's trichrome (Sigma-Aldrich) and picrosirius red (Sigma-Aldrich) according to the manufacturer's instructions. The degree of tissue injury was expressed as tubulointerstitial collagen accumulation per area. […]"}, "C57BL/6J mice [3]": {"test_system": "C57BL/6J mice", "experiment": "Renal fibrosis: real-time PCR analysis of renal tissues", "conditions": "renal tissue, treatment group vs diabetes group, 12 weeks", "method": "Total RNA was isolated using Trizol reagent (Invitrogen) according to the manufacturer's instruction. The total RNA isolate was used for real-time PCR.\nBriefly, as described in Example 10, diabetes was induced, and 1-(pyridin-2-yl)-3-phenyl-4-propyl-1H-pyrazol-5-ol.HCl, the compound of Example 1 of the present invention, was administered to the mice that were sacrificed 12 weeks later. Then, renal tissues were excised from the mice and homogenized with a predetermined amount (500 μl) of Trizol reagent (Invitrogen), followed by centrifuging the homogenate (13,000 rpm, 10 min). The supernatant was reacted with 200 μl of chloroform for 15 min and centrifuged. The total RNA was precipitated with isopropyl alcohol, and washed with 75% ethyl alcohol before use in experiments. From 2 μg of total RNA, cDNA was synthesized using a reverse transcription kit (Applied Biosystems), and selective mRNA was quantitatively analyzed in ABI 7300 real-time PCR thermal cycler (Applied Biosystems) with the aid of SYBR Green PCR Master Mix kit according to the manufacturer's instruction. Each experiment was run in duplicate with 20 μl. For correct quantitation and identification of results from a single product, a standard curve and a dissociation curve were employed. PCR was performed with 40 thermal cycles of 95° C. for 15 sec and 56° C. for 1 min.\nIn FIG. 3, the control (WT) stands for a group in which type 1 diabetes mellitus was not induced, the diabetes group (DM) for a group in which type 1 diabetes mellitus was induced, and the treatment group (DM+compound of Example 1) for a group that was treated with the compound of Example 1 after introduction of type 1 diabetes mellitus. Data of FIG. 3 are expressed as mean±standard error (SE) from 8 to 12 mice per group. Statistic comparison among the groups was analyzed by ANOVA and Fisher's least significant difference test, with significance at p<0.05. *P<0.05 vs. WT, †P<0.05 vs. DM."}}, "note": "“Also recorded” adds a separate entry of the source.", "data": [{"smiles": "CCCc1c(-c2ccccc2)nn(-c2ccccn2)c1O.Cl", "note": "[Compound 18-278, 1-(pyridin-2-yl)-3-phenyl-4-propyl-1H-pyrazol-5-ol.HCl]", "values": [{"measurement": "glomerular mesangial expansion (fractional mesangial area)", "setting": "C57BL/6J mice [1]", "result": "reduced to the level of the control"}, {"measurement": "glomerular size (glomerular volume)", "setting": "C57BL/6J mice [1]", "result": "significantly smaller than that of the diabetes group"}, {"measurement": "collagen accumulation, Masson's trichrome staining (blue area)", "setting": "C57BL/6J mice [2]", "result": "in a smaller area than was the diabetes group; also recorded: significantly reduced"}, {"measurement": "collagen accumulation, picrosirius red staining (red area)", "setting": "C57BL/6J mice [2]", "result": "a smaller area; also recorded: significantly reduced"}, {"measurement": "macrophage production, immunohistochemical staining (F4/80)", "setting": "C57BL/6J mice [2]", "result": "in a smaller area than was the diabetes group; also recorded: significantly reduced"}, {"measurement": "expression level of Collagen Iα1 mRNA to 18S rRNA", "setting": "C57BL/6J mice [3]", "result": "significantly decreased"}, {"measurement": "expression level of F4/80 mRNA to 18S rRNA", "setting": "C57BL/6J mice [3]", "result": "significantly decreased"}, {"measurement": "expression level of TGF-β1 mRNA to 18S rRNA", "setting": "C57BL/6J mice [3]", "result": "significantly decreased"}, {"measurement": "expression level of collagen IV mRNA to 18S rRNA", "setting": "C57BL/6J mice [3]", "result": "significantly decreased"}, {"measurement": "expression level of fibronectin mRNA to 18S rRNA", "setting": "C57BL/6J mice [3]", "result": "significantly decreased"}]}]}
